Experimental data reported in patent US7718764B2, “Biologically active peptide [sequence] derivatives” (CMS Peptides Patent Holding Company Limited, priority 2004, dated 2010).
Marks after values point to notes of the source that are not given here.

Assays:
[1] = tested on: mice T-lymphocyte; experiment: Mice T-lymphocyte transformation in vivo (i.p. dosing 20 days, spleen cells + ConA, MTT, stimulation index); design: species or system BALB/c mice; conditions: for Effect on mice T-lymphocyte transformation in vivo: at suitable dosages, vs saline control P<0.05
Experimental: Animals were randomized into two peptide groups (200 μg/kg/day and 50 μg/kg/day), Cyclosporine A group (10 mg/kg/day), and saline group (0.5 ml/day). Each group contained 10 mice, in which half were female and half were male. All test substances were dissolved in 0.5 ml saline and administered intraperitoneally once per day for 20 days. T-lymphocyte transformation and NK cell activity were examined on the day immediately following the last injection. The day after the last test substance administration, the mice were sacrificed by cervical dislocation. The spleens were isolated aseptically and manually dispersed in 10% FBS RPMI-1640 solution using an injection needle. The dispersed cell suspension was further sieved through a 100 gauge 150 μm diameter stainless steel sieve and adjusted to 4×10^6/ml. The cell suspensions were inoculated onto a 96 wells cell culture plate, 100 μl/well with the following design. Assay wells: 100 μl cell suspension+100 μl ConA Control wells: 100 μl cell suspension+100 μl RPMI-1640 Four assay and four control wells were set up for each animal. The plates were incubated at 37° C., 5% CO2 for 68 hours. MTT was then added and the plates read at OD 570 nm referenced at 630 nm with ELISA reader. Stimulation Index SI (%)=(assay well OD/control well OD)×100%.

[2] = tested on: mice NK cell; experiment: Mice NK cell activity in vivo (i.p. dosing 20 days, spleen effector cells vs YAC-1 target cells, MTT); design: species or system BALB/c mice; conditions: for Effect on mice NK cell activity in vivo (suppression) / Effect on mice NK cell activity in vivo (enhancement): at suitable dosage, vs saline control P<0.05
Experimental: Animals were randomized into two peptide groups (200 μg/kg/day and 50 μg/kg/day), Cyclosporine A group (10 mg/kg/day), and saline group (0.5 ml/day). Each group contained 10 mice, in which half were female and half were male. All test substances were dissolved in 0.5 ml saline and administered intraperitoneally once per day for 20 days. T-lymphocyte transformation and NK cell activity were examined on the day immediately following the last injection. YAC-1 target cells were brought to log phase and adjusted to a density of 1×10^5/ml. Mice spleen cells prepared in section 2.2.2 above were adjusted to a density of 4×10^6/ml and used as effector cells. The cell suspensions were inoculated onto 96 wells cell culture plates as follows: Effector cell wells: 100 μl spleen cell suspension+100 μl RPMI-1640 Assay wells: 100 μl spleen cell suspension+100 μl YAC-1 cell suspension Target cell wells: 100 μl YAC-1 cell suspension+100 μl RPMI-1640 Three assay wells and three effector cell wells were set up for each animal, and 12 target cell wells were set up per cell culture plate. The plates were incubated at 37° C., 5% CO2 for 4 hours, then MTT was added and the plates were read at OD 570 nm referenced at 630 nm with ELISA reader. NK cell activity (%)=1−[(assay wells OD−effector cell wells OD)/target cell wells OD]×100%

[3] = tested on: S180 sarcoma cells; experiment: Growth of KM mice-transplanted S180 sarcoma cells in vivo; design: unit not given here; conditions: Table 12; for Sarcoma volume: V=(1/6)πABC, saline 1.20 ± 0.28; for Sarcoma weight: saline 1.87 ± 0.52
Experimental: S180 sarcoma cells were transplanted intraperitoneally into KM mice for 6-8 days and the ascites aseptically collected. The cell concentration was adjusted to 1×10^7 per ml with 10% FBS RPMI-1640, and 0.2 ml cell suspension was injected through the armpit into each KM mice for developing the sarcoma bearing mice model. […] Intraperitoneal injection of test substances started on the day immediately after tumor transplantation and continued once per day for 20 consecutive days.
On the day after the last test substance administration, the sarcomas were removed from the mice and weighed. The diameters of each sarcoma on the three planes (A, B, C) were measured by a vernier caliper. The volume of the sarcoma was calculated by the formula: V=(⅙)πABC.

[4] = tested on: Masugi nephritis rabbits; experiment: Masugi nephritis in rabbits: urine protein; type: in vivo; conditions: 0.1 mg/kg/day i.v.
Experimental: (§1) Twenty-two healthy rabbits were randomized into 5 groups: peptide (107.3 μg/kg/day and 58.5 μg/kg/day, 4 rabbits per group), dexamethasone (0.1 mg/kg/day, 4 rabbits), saline treatment (1 ml/day, 7 rabbits), and normal healthy (3 rabbits). Before the establishment of a disease state in the rabbits, measurements of serum BUN, creatinine, and urine protein over 24 hours were taken for each rabbit. If there was no abnormality in these measurements, the Masugi nephritis model was established in experimental rabbits by intravenous injection of sheep anti-rabbit renal cortex antiserum via the auricular vein, 0.5 ml per injection, one injection every 30 minutes, for a total of 4 injections per rabbit. The normal healthy (control) rabbit group was injected with saline in the same manner. Intravenous administration of the test substances via the auricular vein was started on the day after the injection of the antiserum, once per day, 1 ml per injection, for 30 consecutive days.
Urine was collected from each rabbit over a 24 hour period once per week and the protein content determined by the sulfosalicylic acid method.
(§2) Statistical significance was determined by the t-test of the SPSS software.

[5] = tested on: Masugi nephritis rabbits; experiment: Masugi nephritis in rabbits: clearance of sheep anti-rabbit renal cortex IgG antibody (glomerular immunofluorescence); type: in vivo; conditions: 0.1 mg/kg/day i.v. 30 days, saline treatment 8.7 ± 0.9
Experimental: as §1, with “Before” for “Twenty-two healthy rabbits were randomized into 5 groups: peptide (107.3 μg/kg/day and 58.5 μg/kg/day, 4 rabbits per group), dexamethasone (0.1 mg/kg/day, 4 rabbits), saline treatment (1 ml/day, 7 rabbits), and normal healthy (3 rabbits). Before”
For observation of the effects of peptides on the clearance of sheep anti-rabbit renal cortex IgG antibody from Masugi nephritis rabbits, on the day after the last test substance administration, the rabbits were sacrificed by suffocation and the right kidney was extirpated, freeze-edged and then immunofluorescently stained for the presence of sheep IgG. The fluorescence-positive area of each glomerulus was counted. Thirty glomeruli per rabbit were examined and the average positive area per glomerulus was calculated.
as §2

[6] = tested on: mice T-lymphocyte; experiment: Mice T-lymphocyte transformation induced by ConA in vitro (spleen cells, MTT); type: cell-based, BALB/c mice; conditions: for OD: Table 2, ConA 5 μg/ml, 68 hrs
Experimental: The spleens from healthy mice were isolated aseptically and manually dispersed in 10% FBS RPMI-1640 solution using an injection needle. The dispersed cell suspension was further sieved through a 100-gauge 150 μm diameter stainless steel sieve. The spleen cell suspension was adjusted to a density of 4×10^6/ml and was aliquoted onto 96-well cell culture plates at 100 μl/well. Peptides were dissolved in plain RPMI-1640. The design of the groupings was as given below.
Peptide group: 100 μl working peptide solution+75 μl spleen cell suspension+25 μl ConA working solution.
ConA control group: 100 μl RPMI-1640+75 μl spleen cell suspension+25 μl ConA working solution.
Negative control group: 125 μl RPMI-1640+75 μl spleen cell suspension.
The final concentration of ConA in the well was 5 μg/ml. The final concentrations of peptides in the well were 80 μg/ml, 16 μg/ml, 3.2 μg/ml, 0.64 μg/ml, and 0.128 μg/ml. Each peptide group contained three parallel wells, and eight or twelve wells for the control groups. The cells were incubated for 68 hrs at 37° C., 5% CO2. MTT method was used to obtain a reading of OD570 nm of each well referenced at 630 nm on an ELISA reader.

[7] = Table 8, 200 μg/kg/day i.p. 20 days, saline 76.0 ± 4.3
[8] = Table 9, 50 μg/kg/day i.p. 20 days, saline 55.3 ± 6.1
[9] = Table 7, 50 μg/kg/d i.p. 20 days, saline 2.96 ± 0.61

Substance	Effect on mice T-lymphocyte transformation in vivo [1]	Sarcoma volume ([3]; 250 μg/kg/day)	Sarcoma weight ([3]; 250 μg/kg/day)	Sarcoma volume ([3]; 500 μg/kg/day)	Sarcoma weight ([3]; 500 μg/kg/day)	NK cell activity (%) [2, 8]	Effect on mice NK cell activity in vivo (enhancement) [2]	other results
APLNPK [CMS-010.24]	suppress	0.36 ± 0.30	0.61 ± 0.39	0.62 ± 0.47	1.20 ± 0.79			SI ([1]; Table 4, 50 μg/kg/day i.p. 20 days, saline 3.63 ± 0.69): 2.40 ± 0.31; NK cell activity (%) ([2]; Table 8, 50 μg/kg/day i.p. 20 days, saline 76.0 ± 4.3): 56.0 ± 6.0 %; NK cell activity (%) [2, 7]: 69.0 ± 7.4 %; Effect on mice NK cell activity in vivo (suppression) [2]: suppress
Dexamethasone Sodium Phosphate [reference compound]								proteinuria Week 0 ([4]; Week 0, saline treatment 11.72 ± 3.18): 9.48 ± 8.46 mg/dL; proteinuria Week 1 ([4]; Week 1, saline treatment 122 ± 91): 29 ± 12 mg/dL; proteinuria Week 2 ([4]; Week 2, saline treatment 160 ± 138): 13.6 ± 6.3 mg/dL; proteinuria Week 3 ([4]; Week 3, saline treatment 145 ± 33): 13.7 ± 3.1 mg/dL; proteinuria Week 4 ([4]; Week 4, saline treatment 157 ± 71): 25 ± 19 mg/dL; Positive area count/glomerulus [5]: 7.5 ± 1.0
HPTLLTEAPLNPK [CMS-010.11]		0.63 ± 0.40	0.64 ± 0.31	0.95 ± 0.54	1.14 ± 0.74	63.5 ± 4.7 %	enhance	
LNPK [CMS-010.28]	suppress							SI ([1]; Table 4, 200 μg/kg/day i.p. 20 days, saline 3.63 ± 0.69): 2.70 ± 0.37; NK cell activity (%) [2, 7]: 70.3 ± 6.7 %; Effect on mice NK cell activity in vivo (suppression) [2]: suppress
PEEHPTLLTEAPLNPK [CMS-010.04]	suppress	0.17 ± 0.12*^@	0.27 ± 0.19*^@	0.40 ± 0.28	0.62 ± 0.44			SI ([1]; Table 6, 50 μg/kg/day i.p. 20 days, saline 2.24 ± 0.52): 1.56 ± 0.25
PTLLTEAPLNPK [CMS-010.13]		0.91 ± 0.59	0.92 ± 0.56	0.38 ± 0.23	0.73 ± 0.43	70.9 ± 17.5 %	enhance	
VANPK [CMS-010.105]								OD ([6]; peptide 0.64 μg/ml, ConA control 0.467 ± 0.043): 0.386 ± 0.008; OD ([6]; peptide 80 μg/ml, MTT OD570 nm ref 630 nm, ConA control 0.467 ± 0.043, negative control 0.134 ± 0.011): 0.407 ± 0.019; Effect on mice T-lymphocyte transformation induced by ConA in vitro ([6]; at suitable concentrations, vs ConA positive control P<0.05): suppress
VAPEEH [CMS-010.25]	suppress	0.48 ± 0.37	0.65 ± 0.53	0.26 ± 0.21*^@	0.52 ± 0.38			SI ([1]; Table 5, 200 μg/kg/day i.p. 20 days, saline 3.15 ± 0.83): 2.43 ± 0.69
VAPEEHPTLLT [CMS-010.14]	suppress	0.29 ± 0.21	0.44 ± 0.30*^@	0.56 ± 0.53	0.67 ± 0.70	75.3 ± 9.0 %	enhance	SI [1, 9]: 2.12 ± 0.51; NK cell activity (%) ([2]; Table 9, 200 μg/kg/day i.p. 20 days, saline 55.3 ± 6.1): 43.1 ± 13.7 %
VAPEEHPTLLTE [CMS-010.12]	suppress							SI [1, 9]: 2.12 ± 0.42
